Source: ChEMBL document CHEMBL5465560, “Selectivity Literature for EUbOPEN Chemogenomic Library” (2024)
Each block holds one compound with its values, some of them ahead of it.

Experiments:
[1] = biological target: STE20-like serine/threonine-protein kinase (Homo sapiens, UniProt Q9H2G2); details: at 10 µM
[2] = biological target: T1, Serine/threonine-protein kinase BRSK2 (Homo sapiens) (UniProt Q8IWQ3); details: at 10 µM
T1 sequence (whole entry): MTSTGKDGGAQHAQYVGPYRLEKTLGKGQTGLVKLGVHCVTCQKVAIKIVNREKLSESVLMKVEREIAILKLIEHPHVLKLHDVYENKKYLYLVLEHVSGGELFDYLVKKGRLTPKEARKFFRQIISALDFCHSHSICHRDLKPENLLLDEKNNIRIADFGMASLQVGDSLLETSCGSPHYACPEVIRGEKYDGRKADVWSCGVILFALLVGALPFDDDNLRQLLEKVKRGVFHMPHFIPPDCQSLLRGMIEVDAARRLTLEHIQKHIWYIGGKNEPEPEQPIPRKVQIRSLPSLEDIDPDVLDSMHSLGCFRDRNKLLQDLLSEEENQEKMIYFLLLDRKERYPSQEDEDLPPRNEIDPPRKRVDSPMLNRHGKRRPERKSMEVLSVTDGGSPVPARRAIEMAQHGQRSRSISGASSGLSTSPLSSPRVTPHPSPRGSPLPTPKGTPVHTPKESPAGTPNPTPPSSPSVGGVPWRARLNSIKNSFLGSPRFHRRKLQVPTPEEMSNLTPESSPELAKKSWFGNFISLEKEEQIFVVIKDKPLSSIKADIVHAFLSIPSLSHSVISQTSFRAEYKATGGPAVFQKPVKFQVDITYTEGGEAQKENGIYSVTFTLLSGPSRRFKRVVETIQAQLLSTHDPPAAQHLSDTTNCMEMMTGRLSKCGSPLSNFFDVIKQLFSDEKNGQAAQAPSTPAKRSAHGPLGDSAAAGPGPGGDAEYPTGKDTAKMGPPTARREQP

[3] = biological target: Serine/threonine-protein kinase 16 (Homo sapiens, UniProt O75716); details: at 10 µM
Serine/threonine-protein kinase 16, sequence (O75716 whole entry): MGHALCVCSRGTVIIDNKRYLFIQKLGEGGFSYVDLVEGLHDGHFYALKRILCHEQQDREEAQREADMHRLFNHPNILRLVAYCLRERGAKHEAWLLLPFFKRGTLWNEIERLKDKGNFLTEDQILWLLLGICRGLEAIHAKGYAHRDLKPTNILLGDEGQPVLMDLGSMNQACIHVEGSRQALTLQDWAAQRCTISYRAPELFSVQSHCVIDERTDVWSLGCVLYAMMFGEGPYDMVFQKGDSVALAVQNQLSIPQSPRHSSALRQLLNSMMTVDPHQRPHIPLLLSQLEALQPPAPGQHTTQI

[4] = biological target: Serine/threonine-protein kinase pim-3 (Homo sapiens) (UniProt Q86V86); experiment: Selectivity interaction (Kinase panel (DSF assay)) EUB0001489b PIM3
[5] = biological target: Receptor tyrosine-protein kinase erbB-2 (Homo sapiens, UniProt P04626); experiment: Selectivity interaction (KinomeScan (DiscoverX)) EUB0001079a ERBB2; details: at 1 µM
Receptor tyrosine-protein kinase erbB-2, sequence (P04626 whole entry): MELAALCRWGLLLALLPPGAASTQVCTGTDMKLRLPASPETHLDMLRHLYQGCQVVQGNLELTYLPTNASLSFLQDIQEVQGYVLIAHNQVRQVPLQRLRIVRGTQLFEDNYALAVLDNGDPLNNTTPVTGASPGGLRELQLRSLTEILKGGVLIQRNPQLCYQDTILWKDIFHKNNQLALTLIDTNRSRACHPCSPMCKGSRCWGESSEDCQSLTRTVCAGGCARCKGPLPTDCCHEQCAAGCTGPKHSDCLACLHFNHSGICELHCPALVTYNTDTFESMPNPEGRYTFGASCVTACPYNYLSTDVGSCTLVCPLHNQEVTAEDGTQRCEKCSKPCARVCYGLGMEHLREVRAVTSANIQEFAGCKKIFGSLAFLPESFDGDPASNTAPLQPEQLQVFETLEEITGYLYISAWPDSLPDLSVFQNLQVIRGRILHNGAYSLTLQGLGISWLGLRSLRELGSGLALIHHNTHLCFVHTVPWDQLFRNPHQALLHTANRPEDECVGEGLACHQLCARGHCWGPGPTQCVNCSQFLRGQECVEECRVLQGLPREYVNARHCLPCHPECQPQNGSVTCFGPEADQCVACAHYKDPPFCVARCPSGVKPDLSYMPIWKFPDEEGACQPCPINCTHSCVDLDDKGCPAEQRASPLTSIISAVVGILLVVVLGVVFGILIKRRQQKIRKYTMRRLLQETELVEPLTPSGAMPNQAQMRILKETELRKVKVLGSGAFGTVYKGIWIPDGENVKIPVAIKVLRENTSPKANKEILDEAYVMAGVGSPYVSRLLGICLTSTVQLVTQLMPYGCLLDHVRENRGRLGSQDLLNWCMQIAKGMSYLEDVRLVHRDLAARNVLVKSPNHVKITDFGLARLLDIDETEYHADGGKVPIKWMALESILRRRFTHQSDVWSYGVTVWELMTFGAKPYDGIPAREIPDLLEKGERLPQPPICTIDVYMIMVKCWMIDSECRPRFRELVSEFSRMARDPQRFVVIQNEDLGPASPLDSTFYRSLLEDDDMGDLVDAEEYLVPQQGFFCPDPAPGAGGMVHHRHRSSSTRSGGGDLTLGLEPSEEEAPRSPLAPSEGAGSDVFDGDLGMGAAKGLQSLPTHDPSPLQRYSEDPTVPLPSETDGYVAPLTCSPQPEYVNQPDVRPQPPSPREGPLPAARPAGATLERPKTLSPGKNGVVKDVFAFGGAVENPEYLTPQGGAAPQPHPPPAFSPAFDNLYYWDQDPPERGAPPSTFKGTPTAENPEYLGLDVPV

[6] = biological target: Tyrosine-protein kinase Yes (Homo sapiens) (UniProt P07947); experiment: Selectivity interaction (KinomeScan (DiscoverX)) EUB0001079a YES1; details: at 1 µM
[7] = biological target: Calcium/calmodulin-dependent protein kinase type II subunit beta (Homo sapiens) (UniProt Q13554); experiment: Selectivity interaction (KinomeScan (DiscoverX)) EUB0000092b CAMK2B; details: at 10 µM
Calcium/calmodulin-dependent protein kinase type II subunit beta (Homo sapiens), sequence (Q13554 whole entry): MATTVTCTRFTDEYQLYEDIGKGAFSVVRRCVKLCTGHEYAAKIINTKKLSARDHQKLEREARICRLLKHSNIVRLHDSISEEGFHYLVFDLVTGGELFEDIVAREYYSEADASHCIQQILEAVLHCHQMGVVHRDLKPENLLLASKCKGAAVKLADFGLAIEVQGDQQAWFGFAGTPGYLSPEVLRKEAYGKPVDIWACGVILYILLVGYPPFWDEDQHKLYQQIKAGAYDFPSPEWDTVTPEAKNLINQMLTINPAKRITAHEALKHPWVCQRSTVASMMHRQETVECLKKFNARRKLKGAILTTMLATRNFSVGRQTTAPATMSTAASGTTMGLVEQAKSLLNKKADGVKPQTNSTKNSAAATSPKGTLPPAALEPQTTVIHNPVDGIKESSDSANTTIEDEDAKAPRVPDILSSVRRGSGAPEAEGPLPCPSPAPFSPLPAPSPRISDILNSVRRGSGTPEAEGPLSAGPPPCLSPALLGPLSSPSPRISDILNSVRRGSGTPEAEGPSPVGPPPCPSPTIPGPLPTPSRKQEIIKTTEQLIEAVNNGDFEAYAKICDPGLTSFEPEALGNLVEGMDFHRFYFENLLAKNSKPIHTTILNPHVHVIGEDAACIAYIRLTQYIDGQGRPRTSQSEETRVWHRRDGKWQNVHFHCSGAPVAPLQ

[8] = biological target: Cyclin-dependent kinase 18 (Homo sapiens) (UniProt Q07002); experiment: Selectivity interaction (KinomeScan (DiscoverX)) EUB0000655a CDK18; details: at 10 µM
Cyclin-dependent kinase 18 (Homo sapiens), sequence (Q07002 whole entry, the tested form may be a part): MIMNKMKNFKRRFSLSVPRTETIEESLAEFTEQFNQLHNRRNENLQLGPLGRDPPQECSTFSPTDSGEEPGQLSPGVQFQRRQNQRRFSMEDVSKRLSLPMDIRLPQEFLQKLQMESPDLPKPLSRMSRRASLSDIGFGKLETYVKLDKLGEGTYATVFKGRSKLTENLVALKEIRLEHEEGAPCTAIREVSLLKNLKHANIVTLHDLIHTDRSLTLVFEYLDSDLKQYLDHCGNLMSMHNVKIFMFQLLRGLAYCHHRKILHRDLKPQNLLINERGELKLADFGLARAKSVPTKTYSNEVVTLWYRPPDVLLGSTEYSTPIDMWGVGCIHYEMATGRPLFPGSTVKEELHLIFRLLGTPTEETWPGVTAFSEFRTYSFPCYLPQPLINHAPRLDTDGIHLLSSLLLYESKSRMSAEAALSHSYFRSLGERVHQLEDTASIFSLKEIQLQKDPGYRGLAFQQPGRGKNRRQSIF

[9] = biological target: T2, Ankyrin repeat and protein kinase domain-containing protein 1 (Homo sapiens) (UniProt Q8NFD2); experiment: Selectivity interaction (KinomeScan (DiscoverX)) EUB0000655a ANKK1; details: at 10 µM
T2 sequence (whole entry): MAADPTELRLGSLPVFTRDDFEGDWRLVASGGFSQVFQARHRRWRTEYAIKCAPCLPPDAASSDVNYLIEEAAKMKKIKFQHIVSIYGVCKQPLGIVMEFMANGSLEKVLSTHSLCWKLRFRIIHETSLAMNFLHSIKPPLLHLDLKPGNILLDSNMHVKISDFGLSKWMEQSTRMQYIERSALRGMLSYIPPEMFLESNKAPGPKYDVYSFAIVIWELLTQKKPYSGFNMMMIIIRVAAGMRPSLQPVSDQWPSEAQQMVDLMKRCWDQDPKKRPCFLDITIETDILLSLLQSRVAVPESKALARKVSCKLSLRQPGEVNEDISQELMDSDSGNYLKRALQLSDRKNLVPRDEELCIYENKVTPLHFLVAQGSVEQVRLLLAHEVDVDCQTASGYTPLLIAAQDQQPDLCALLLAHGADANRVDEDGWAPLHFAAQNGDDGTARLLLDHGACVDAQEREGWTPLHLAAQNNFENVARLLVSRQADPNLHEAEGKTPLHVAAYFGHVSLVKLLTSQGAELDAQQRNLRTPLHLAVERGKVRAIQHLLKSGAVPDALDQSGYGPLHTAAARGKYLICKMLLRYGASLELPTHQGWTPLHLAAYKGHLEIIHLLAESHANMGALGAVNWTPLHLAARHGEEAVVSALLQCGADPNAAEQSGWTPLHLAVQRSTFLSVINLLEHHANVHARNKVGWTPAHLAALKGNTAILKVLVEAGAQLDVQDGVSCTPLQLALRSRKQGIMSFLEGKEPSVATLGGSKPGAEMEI

[10] = biological target: G protein-coupled receptor kinase 4 (Homo sapiens) (UniProt P32298); experiment: Selectivity interaction (KinomeScan (DiscoverX)) EUB0000618a GRK4; details: at 10 µM
G protein-coupled receptor kinase 4 (Homo sapiens), sequence (P32298 whole entry, looked up): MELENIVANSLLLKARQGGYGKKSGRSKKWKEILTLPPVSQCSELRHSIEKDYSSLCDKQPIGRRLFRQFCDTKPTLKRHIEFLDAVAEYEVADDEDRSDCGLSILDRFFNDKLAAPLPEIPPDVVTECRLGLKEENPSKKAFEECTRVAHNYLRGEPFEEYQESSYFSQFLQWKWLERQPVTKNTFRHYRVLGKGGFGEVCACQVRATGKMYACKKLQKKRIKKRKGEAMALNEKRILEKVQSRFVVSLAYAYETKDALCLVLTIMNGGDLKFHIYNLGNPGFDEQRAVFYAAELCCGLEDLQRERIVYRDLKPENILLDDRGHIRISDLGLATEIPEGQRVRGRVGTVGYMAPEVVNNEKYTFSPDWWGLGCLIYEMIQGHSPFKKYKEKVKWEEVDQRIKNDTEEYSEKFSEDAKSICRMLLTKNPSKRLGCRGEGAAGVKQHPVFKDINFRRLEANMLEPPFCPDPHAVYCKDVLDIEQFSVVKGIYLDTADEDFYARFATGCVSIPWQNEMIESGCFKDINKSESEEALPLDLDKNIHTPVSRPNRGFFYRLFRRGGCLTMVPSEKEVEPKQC

[11] = biological target: T3, Serine/threonine-protein kinase D1 (Homo sapiens) (UniProt Q15139); experiment: Selectivity interaction (KinomeScan (DiscoverX)) EUB0000666a PRKD1; details: at 10 µM
T3 sequence (whole entry): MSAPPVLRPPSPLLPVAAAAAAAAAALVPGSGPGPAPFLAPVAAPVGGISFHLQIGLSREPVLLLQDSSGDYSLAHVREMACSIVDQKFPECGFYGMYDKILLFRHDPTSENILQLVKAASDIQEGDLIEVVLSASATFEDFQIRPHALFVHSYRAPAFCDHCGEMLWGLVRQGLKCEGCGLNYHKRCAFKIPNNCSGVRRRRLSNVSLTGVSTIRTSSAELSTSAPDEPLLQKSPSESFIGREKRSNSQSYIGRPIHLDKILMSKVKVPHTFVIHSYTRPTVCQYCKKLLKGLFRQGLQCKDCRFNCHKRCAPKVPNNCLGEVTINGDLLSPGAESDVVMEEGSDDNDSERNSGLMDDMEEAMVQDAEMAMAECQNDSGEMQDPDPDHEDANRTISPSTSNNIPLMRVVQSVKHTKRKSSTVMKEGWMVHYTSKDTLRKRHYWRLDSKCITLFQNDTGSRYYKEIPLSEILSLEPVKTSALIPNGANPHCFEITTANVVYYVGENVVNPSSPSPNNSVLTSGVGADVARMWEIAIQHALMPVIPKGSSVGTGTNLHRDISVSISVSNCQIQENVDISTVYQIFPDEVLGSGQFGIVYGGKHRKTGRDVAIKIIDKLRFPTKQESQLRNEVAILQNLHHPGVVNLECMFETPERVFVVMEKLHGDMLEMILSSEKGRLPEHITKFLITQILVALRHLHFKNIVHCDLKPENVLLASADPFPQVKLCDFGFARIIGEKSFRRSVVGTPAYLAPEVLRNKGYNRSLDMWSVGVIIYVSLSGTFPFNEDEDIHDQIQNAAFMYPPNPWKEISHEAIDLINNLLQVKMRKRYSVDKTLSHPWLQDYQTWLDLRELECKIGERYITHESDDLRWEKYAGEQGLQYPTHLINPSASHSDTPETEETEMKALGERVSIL

STE20-like serine/threonine-protein kinase, sequence (Q9H2G2 whole entry, looked up): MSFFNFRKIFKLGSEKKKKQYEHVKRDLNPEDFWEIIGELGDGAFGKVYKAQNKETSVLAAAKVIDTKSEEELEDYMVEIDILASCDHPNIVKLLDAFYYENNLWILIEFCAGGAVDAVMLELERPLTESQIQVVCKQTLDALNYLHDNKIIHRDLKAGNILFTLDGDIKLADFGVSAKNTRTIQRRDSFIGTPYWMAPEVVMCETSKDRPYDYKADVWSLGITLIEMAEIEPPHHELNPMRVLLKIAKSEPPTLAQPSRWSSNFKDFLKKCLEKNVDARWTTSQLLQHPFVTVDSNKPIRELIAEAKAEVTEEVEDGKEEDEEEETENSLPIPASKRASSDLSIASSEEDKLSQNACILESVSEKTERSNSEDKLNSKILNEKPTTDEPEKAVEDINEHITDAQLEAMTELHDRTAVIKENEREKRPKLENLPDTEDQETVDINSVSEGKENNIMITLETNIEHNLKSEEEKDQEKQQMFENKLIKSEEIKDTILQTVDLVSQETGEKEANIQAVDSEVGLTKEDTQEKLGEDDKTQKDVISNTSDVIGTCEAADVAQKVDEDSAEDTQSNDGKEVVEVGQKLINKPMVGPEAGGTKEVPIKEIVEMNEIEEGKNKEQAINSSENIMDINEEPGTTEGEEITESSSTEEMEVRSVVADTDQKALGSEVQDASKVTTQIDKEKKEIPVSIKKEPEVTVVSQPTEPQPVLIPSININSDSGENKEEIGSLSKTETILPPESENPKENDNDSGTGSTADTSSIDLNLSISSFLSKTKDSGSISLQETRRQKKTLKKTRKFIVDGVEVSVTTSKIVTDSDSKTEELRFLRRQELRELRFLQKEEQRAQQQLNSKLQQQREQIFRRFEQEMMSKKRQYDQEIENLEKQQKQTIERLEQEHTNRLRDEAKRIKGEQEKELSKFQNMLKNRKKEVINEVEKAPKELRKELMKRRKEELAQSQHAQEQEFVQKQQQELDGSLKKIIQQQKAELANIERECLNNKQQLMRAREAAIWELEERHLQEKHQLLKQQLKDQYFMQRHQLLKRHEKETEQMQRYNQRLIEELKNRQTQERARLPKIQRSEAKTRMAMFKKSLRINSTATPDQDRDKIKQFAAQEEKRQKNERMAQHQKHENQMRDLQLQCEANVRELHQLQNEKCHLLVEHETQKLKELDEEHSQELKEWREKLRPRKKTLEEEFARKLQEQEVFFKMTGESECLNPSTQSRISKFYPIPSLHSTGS

SMILES: Cc1cc([C@@H](C)Nc2ccccc2C(=O)O)c2nc(N3CCOCC3)cc(=O)n2c1 [AZD-6482]
- % of control [1]: 100%
- % of control [2]: 100%
- % of control [3]: 77%

- dTM [4]: 2.1 K
SMILES: CN1CCN(C(=O)c2ccc3cc2OCCOCCNc2ccn4ncc-3c4n2)CC1

SMILES: Nc1cnc(N2CCc3cc(S(=O)(=O)Nc4c(F)cc(Cl)cc4F)cc(N4CCCC4=O)c32)nc1 [TP-020n]
- % of control [5]: 100%
- % of control [6]: 100%

SMILES: CCC(=O)N1CCN(c2ccc(-n3c(=O)ccc4cnc5ccc(-c6cnc7ccccc7c6)cc5c43)cc2C(F)(F)F)CC1
- % of control [7]: 100%

SMILES: CN(C)CCOc1ccc(-c2nc(-c3ccncc3)c(-c3ccc4c(c3)CC/C4=N\O)[nH]2)cc1
- % of control [8]: 100%
- % of control [9]: 100%

SMILES: O[C@H]1CC[C@H](Nc2ncc3nc(Nc4c(F)cc(F)cc4F)n([C@H]4CCOC4)c3n2)CC1
- % of control [10]: 98%

SMILES: O=C(NOC[C@H](O)CO)c1ccc(F)c(F)c1Nc1ccc(I)cc1F
- % of control [11]: 100%
